# Reference: US20080293699A1, “Inhibitors of thapsigargin-induced cell death” (priority 2007, published 2008)
# How the values were obtained:
# CHOP = experiment: Thapsigargin-induced expression of CHOP; assay type: cell-based, rat; conditions: listed as CID-2878746
# Method: CSM 14.1 cells were cultured with DMSO or with 25 μM of hit compounds for two hours followed by treatment with thapsigargin (15 μM). Cell lysates were prepared and analyzed by SDS-PAGE/immunoblotting using antibodies specific for: c-Jun, phosphor-c-Jun (ser 73), eIF2a, phosphor-eIF2a (ser 51), p38 MAPK, phosphor-p38 MAPK (Thr180/Tyr182), ATF-6, CHOP and tubulin (loading control). ER stress-induced activation of C-Jun and p38 MAPK is suppressed by the 11 hit compounds.
# ATF6 = ATF6 proteolytic processing (immunoblotting); assay type: cell-based, rat; conditions: immunoblotting to detect cleaved form; listed as CID-2878746
# Source text: After confirming the pathway selectivity of compounds, additional downstream assays can be performed to map the specific signal transduction pathway inhibited by the compounds. In this regard, various antibody reagents are commercially available for assessing the status of the three major pathways known to be activated by ER stress: (1) PERK, (2) Ire1, and (3) ATF6 (Xu et al., J. Clinical Invest., 115:2656-2664, 2005). Immunoblotting experiments can be performed to assess the expression or phosphorylation (using phospho-specific antibodies) of marker proteins in these pathways. […] Cell lysates were prepared and analyzed by SDS-PAGE/immunoblotting using antibodies specific for phospho-c-Jun, phospho-eIF2α, phospho-p38 MAPK, and tubulin (a loading control). […] After two hrs, cell lysates were prepared, normalized for protein content, and either analyzed by SDS-PAGE/immunoblotting using anti-p38-MAPK pan-reactive antibody or phospho-specific antibody with ECL-based detection, followed by densitometry analysis of x-ray films, normalizing phosphor-p38 MAPK relative to total p38 MAPK, or analyzed using a meso-scale instrument from MSD and a procedure in which total p38 MAPK is captured on plates, and the relative amounts of phosphorylated protein were determined using phospho-specific antibody (MSD catalog #K15112D1). […]
# [1] = test system: protein phosphatase 2B (Calcineurin); experiment: In vitro phosphatase assay with immunoprecipitated ASK1 (ser 967 site) as substrate; assay type: biochemical; conditions: 100 μM
# Jnk-1 and Jnk-2 = experiment: c-Jun activation by purified Jnk-1 and Jnk-2, in vitro kinase assay; assay type: biochemical; conditions: 50 μM compound
# Method: C-Jun and p38 MAPK work downstream of the Ire1 pathway (see FIG. 21), we tested whether one of our hit compounds (6239507) inhibits autophosphorylation of any of kinases in this Ire1-ASK1-JNK/p38 MAPK pathway. […] An Ire1 autophosphorylation assay was performed. Immunoprecipitated Ire1 was incubated with DMSO (2%), 50 μM compound 6239507, or the positive control staurosporine (20 μM; STS) for 20 minutes at 30° C. followed by chilling on ice. 0.5 μCi of ^32P-γ-ATP was added to each tube and incubated at 30° C. for the indicated times. Kinase reactions were finished by adding sample buffer. Incorporation values of ^32P-γ-ATP were evaluated by a scintillation counter. An ASK1-MKK6-p38 coupled assay was also performed. Immunoprecipitated ASK1 was mixed with 1 μg MKK6 (Millipore) and 1 μg p38 MAPK (Sigma). Kinases were incubated with 2% DMSO, 50 μM compound 6239507, or 20 μM staurosporine (STS) in one tube for 20 minutes at 30° C. followed by ice chilling. 0.5 μCi of ^32P-γ-ATP was added to each tube and incubated at 30° C. for the indicated times. Kinase reactions were finished by adding sample buffer. Incorporation values of ^32P-γ-ATP were evaluated by a scintillation counter. C-Jun activation by purified Jnk-1 and Jnk-2 (Millipore) was confirmed with the same procedures.
SMILES,Thapsigargin-induced expression of CHOP (CHOP),ATF6 proteolytic processing (ATF6),Activity of protein phosphatase 2B (Calcineurin) [1],JNK's activity on c-Jun (Jnk-1 and Jnk-2)
"CCN(CC)c1ccc(C2Nc3ccccc3NC3=C2C(=O)CC(c2ccccc2)C3)cc1 (stereo not shown) [Compound 5962123, 6-(4-diethylaminophenyl)-9-phenyl-5,6,8,9,10,11-hexahydrobenzo[c][1,5]benzodiazepin-7-one]",not inhibited,not inhibited,did not affect,–
COc1ccc(C2CC(=O)C3=C(C2)Nc2ccccc2NC3c2cccc(Oc3ccccc3)c2)cc1OC (stereo not shown) [Compound 6239507],–,–,–,does not modulate
